Results on two molecules are retold here after ChEMBL document CHEMBL1148993, “UV-mediated genotoxicity of furanoquinoline and of certain tryptophan-derived alkaloids” (J Nat Prod, 1983).

In series [1] the test system is Candida albicans. Description: Phototoxicity against Candida albicans at 100 ug/disk after irradiation with W/m'2 UV light. Format: functional. The settings on record: light or radiation study, read-out: IZ.
In series [2] the test system is CHO. Description: Genotoxicity in CHO cells assessed as chromosomal aberrations at 12.5 ppm after 60 mins in dark followed by 5 W/m'2 UV irradiation for 30 mins. Format: toxicity, cell-based, Cricetulus griseus. As to conditions: chinese hamster, 0.5 h; call rule not given here.
In series [3] the test system is CHO. As to the kind of experiment: Genotoxicity in CHO cells assessed as chromosomal aberrations at 1.56 ppm after 60 mins in dark followed by 5 W/m'2 UV irradiation for 30 mins. Format: toxicity, cell-based, Cricetulus griseus. As to conditions: chinese hamster, 0.5 h.
Series [4] relates to Escherichia coli. Description: Phototoxicity against Escherichia coli at 100 ug/disk in dark. Format: functional. The settings on record: light or radiation study, read-out: IZ.
Series [5] deals with CHO. Description: Genotoxicity in CHO cells assessed as chromosomal aberrations at 0.78 ppm after 60 mins in dark followed by 5 W/m'2 UV irradiation for 30 mins. As to conditions: chinese hamster, 0.5 h. Format: toxicity, cell-based, Cricetulus griseus.
Series [6] has as its system Bacillus subtilis. Description: Phototoxicity against Bacillus subtilis at 100 ug/disk in dark. Format: functional. As to conditions: light or radiation study, read-out: IZ.
For series [7], the system named is Pseudomonas fluorescens. As to the kind of experiment: Phototoxicity against Pseudomonas fluorescens at 100 ug/disk in dark. Format: functional. The settings on record: light or radiation study, read-out: IZ.
Series [8] relates to Escherichia coli. Description: Phototoxicity against Escherichia coli at 100 ug/disk after irradiation with W/m'2 UV light. Format: functional. As to conditions: light or radiation study, read-out: IZ.
The subject of series [9] is Pseudomonas aeruginosa. As to the kind of experiment: Phototoxicity against Pseudomonas aeruginosa at 100 ug/disk in dark. Format: functional. The settings on record: light or radiation study, read-out: IZ.
Series [10] concerns Enterococcus faecalis. As to the kind of experiment: Phototoxicity against Streptococcus faecalis at 100 ug/disk after irradiation with W/m'2 UV light. Format: functional. As to conditions: light or radiation study, read-out: IZ.
The subject of series [11] is CHO. Description: Genotoxicity in CHO cells assessed as mitotic inhibition at 3.12 ppm after 60 mins in dark followed by 5 W/m'2 UV irradiation for 30 mins. Format: toxicity, cell-based, Cricetulus griseus. As to conditions: chinese hamster, 0.5 h.
The test system of series [12] is CHO. As to the kind of experiment: Genotoxicity in CHO cells assessed as chromosomal aberrations at 6.25 ppm after 60 mins in dark followed by 5 W/m'2 UV irradiation for 30 mins. Format: toxicity, cell-based, Cricetulus griseus. As to conditions: chinese hamster, 0.5 h.
Series [13] has as its system Pseudomonas fluorescens. As to the kind of experiment: Phototoxicity against Pseudomonas fluorescens at 100 ug/disk after irradiation with W/m'2 UV light. As to conditions: light or radiation study, read-out: IZ. Format: functional.
Series [14] has as its system CHO. As to the kind of experiment: Genotoxicity in CHO cells assessed as chromosomal aberrations at 0.19 ppm after 60 mins in dark followed by 5 W/m'2 UV irradiation for 30 mins. Format: toxicity, cell-based, Cricetulus griseus. The settings on record: chinese hamster, 0.5 h.
Series [15] concerns CHO. As to the kind of experiment: Genotoxicity in CHO cells assessed as chromosomal aberrations at 0.39 ppm after 60 mins in dark followed by 5 W/m'2 UV irradiation for 30 mins. Format: toxicity, cell-based, Cricetulus griseus. The settings on record: chinese hamster, 0.5 h.
Series [16] has as its system Staphylococcus aureus. Description: Phototoxicity against Staphylococcus aureus at 100 ug/disk in dark. The settings on record: light or radiation study, read-out: IZ. Format: functional.
For series [17], the system named is Enterococcus faecalis. As to the kind of experiment: Phototoxicity against Streptococcus faecalis at 100 ug/disk in dark. Format: functional. The settings on record: light or radiation study, read-out: IZ.
For series [18], the system named is Saccharomyces cerevisiae. As to the kind of experiment: Phototoxicity against Saccharomyces cerevisiae at 100 ug/disk in dark. Format: functional. As to conditions: light or radiation study, read-out: IZ.
The test system of series [19] is Staphylococcus aureus. As to the kind of experiment: Phototoxicity against Staphylococcus aureus at 100 ug/disk after irradiation with W/m'2 UV light. The settings on record: light or radiation study, read-out: IZ. Format: functional.
Series [20] relates to Saccharomyces cerevisiae. As to the kind of experiment: Phototoxicity against Saccharomyces cerevisiae at 100 ug/disk after irradiation with W/m'2 UV light. Format: functional. The settings on record: light or radiation study, read-out: IZ.
The test system of series [21] is Pseudomonas aeruginosa. Description: Phototoxicity against Pseudomonas aeruginosa at 100 ug/disk after irradiation with W/m'2 UV light. Format: functional. The settings on record: light or radiation study, read-out: IZ.
Series [22] concerns Candida albicans. As to the kind of experiment: Phototoxicity against Candida albicans at 100 ug/disk in dark. Format: functional. The settings on record: light or radiation study, read-out: IZ.
The subject of series [23] is CHO. As to the kind of experiment: Genotoxicity in CHO cells assessed as chromosomal aberrations at 12.5 ppm after 90 mins in dark. Format: toxicity, cell-based, Cricetulus griseus. The settings on record: chinese hamster, 1.5 h.
The subject of series [24] is Bacillus subtilis. Description: Phototoxicity against Bacillus subtilis at 100 ug/disk after irradiation with W/m'2 UV light. Format: functional. The settings on record: light or radiation study, read-out: IZ.
Series [25] concerns Enterococcus faecalis. Description: Phototoxicity against Streptococcus faecalis at 10 ug/disk in dark. Format: functional. The settings on record: light or radiation study, read-out: IZ.
Series [26] relates to Staphylococcus aureus. As to the kind of experiment: Phototoxicity against Staphylococcus aureus at 10 ug/disk in dark. Format: functional. The settings on record: light or radiation study, read-out: IZ.
For series [27], the system named is Bacillus subtilis. As to the kind of experiment: Phototoxicity against Bacillus subtilis at 10 ug/disk in dark. Format: functional. The settings on record: light or radiation study, read-out: IZ.
The test system of series [28] is Candida albicans. As to the kind of experiment: Phototoxicity against Candida albicans at 10 ug/disk in dark. Format: functional. The settings on record: light or radiation study, read-out: IZ.
Series [29] deals with Escherichia coli. Description: Phototoxicity against Escherichia coli at 10 ug/disk in dark. Format: functional. The settings on record: light or radiation study, read-out: IZ.
Series [30] deals with CHO. As to the kind of experiment: Genotoxicity in CHO cells assessed as chromosomal aberrations at 1.9 ppm after 60 mins in dark followed by 5 W/m'2 UV irradiation for 30 mins. Format: toxicity, cell-based, Cricetulus griseus. The settings on record: chinese hamster, 0.5 h.
For series [31], the system named is CHO. As to the kind of experiment: Genotoxicity in CHO cells assessed as chromosomal aberrations at 62.5 ppm after 60 mins in dark followed by 5 W/m'2 UV irradiation for 30 mins. Format: toxicity, cell-based, Cricetulus griseus. The settings on record: chinese hamster, 0.5 h.
Series [32] deals with CHO. As to the kind of experiment: Genotoxicity in CHO cells assessed as chromosomal aberrations at 7.8 ppm after 60 mins in dark followed by 5 W/m'2 UV irradiation for 30 mins. Format: toxicity, cell-based, Cricetulus griseus. As to conditions: chinese hamster, 0.5 h.
For series [33], the system named is Bacillus subtilis. Description: Phototoxicity against Bacillus subtilis at 10 ug/disk after irradiation with W/m'2 UV light. Format: functional. As to conditions: light or radiation study, read-out: IZ.
Series [34] deals with Saccharomyces cerevisiae. Description: Phototoxicity against Saccharomyces cerevisiae at 10 ug/disk in dark. Format: functional. As to conditions: light or radiation study, read-out: IZ.
For series [35], the system named is Pseudomonas fluorescens. As to the kind of experiment: Phototoxicity against Pseudomonas fluorescens at 10 ug/disk after irradiation with W/m'2 UV light. Format: functional. The settings on record: light or radiation study, read-out: IZ.
Series [36] has as its system CHO. As to the kind of experiment: Genotoxicity in CHO cells assessed as chromosomal aberrations at 31.2 ppm after 60 mins in dark followed by 5 W/m'2 UV irradiation for 30 mins. The settings on record: chinese hamster, 0.5 h. Format: toxicity, cell-based, Cricetulus griseus.
The subject of series [37] is CHO. As to the kind of experiment: Genotoxicity in CHO cells assessed as chromosomal aberrations at 125 ppm after 90 mins in dark. Format: toxicity, cell-based, Cricetulus griseus. As to conditions: chinese hamster, 1.5 h.
Series [38] concerns Saccharomyces cerevisiae. Description: Phototoxicity against Saccharomyces cerevisiae at 10 ug/disk after irradiation with W/m'2 UV light. Format: functional. As to conditions: light or radiation study, read-out: IZ.
Series [39] concerns Pseudomonas aeruginosa. As to the kind of experiment: Phototoxicity against Pseudomonas aeruginosa at 10 ug/disk after irradiation with W/m'2 UV light. As to conditions: light or radiation study, read-out: IZ. Format: functional.
The test system of series [40] is Pseudomonas fluorescens. As to the kind of experiment: Phototoxicity against Pseudomonas fluorescens at 10 ug/disk in dark. The settings on record: light or radiation study, read-out: IZ. Format: functional.
Series [41] concerns Candida albicans. As to the kind of experiment: Phototoxicity against Candida albicans at 10 ug/disk after irradiation with W/m'2 UV light. The settings on record: light or radiation study, read-out: IZ. Format: functional.
In series [42] the test system is Pseudomonas aeruginosa. Description: Phototoxicity against Pseudomonas aeruginosa at 10 ug/disk in dark. Format: functional. The settings on record: light or radiation study, read-out: IZ.
Series [43] relates to CHO. As to the kind of experiment: Genotoxicity in CHO cells assessed as chromosomal aberrations at 15.6 ppm after 60 mins in dark followed by 5 W/m'2 UV irradiation for 30 mins. Format: toxicity, cell-based, Cricetulus griseus. The settings on record: chinese hamster, 0.5 h.
Series [44] deals with CHO. Description: Genotoxicity in CHO cells assessed as mitotic inhibition at 3.9 ppm after 60 mins in dark followed by 5 W/m'2 UV irradiation for 30 mins. Format: toxicity, cell-based, Cricetulus griseus. As to conditions: chinese hamster, 0.5 h.
Series [45] has as its system Staphylococcus aureus. Description: Phototoxicity against Staphylococcus aureus at 10 ug/disk after irradiation with W/m'2 UV light. Format: functional. The settings on record: light or radiation study, read-out: IZ.
In series [46] the test system is CHO. Description: Genotoxicity in CHO cells assessed as chromosomal aberrations at 125 ppm after 60 mins in dark followed by 5 W/m'2 UV irradiation for 30 mins. Format: toxicity, cell-based, Cricetulus griseus. As to conditions: chinese hamster, 0.5 h.
The test system of series [47] is Enterococcus faecalis. Description: Phototoxicity against Streptococcus faecalis at 10 ug/disk after irradiation with W/m'2 UV light. The settings on record: light or radiation study, read-out: IZ. Format: functional.
In series [48] the test system is Escherichia coli. Description: Phototoxicity against Escherichia coli at 10 ug/disk after irradiation with W/m'2 UV light. Format: functional. The settings on record: light or radiation study, read-out: IZ.

For `Cc1ncc(C2CCCN2C)c2c1[nH]c1ccccc12` (stereo not drawn) [BREVIOCOLLINE], the zone of inhibition at 100 µg/disc in the series on Candida albicans [1] worked out at 9.5 mm; in the series with Escherichia coli [4], 0 mm; in the series with Bacillus subtilis [6], 0 mm; in the series with Pseudomonas fluorescens [7], 0 mm; with Escherichia coli [8], 15.5 mm; in the series with Pseudomonas aeruginosa [9], 0 mm. Further, the zone of inhibition at 100 µg/disc in the series with Enterococcus faecalis [10] stood at 14 mm; with Pseudomonas fluorescens [13], 7 mm; in the series on Staphylococcus aureus [16] it was 0 mm; with Enterococcus faecalis [17], 0 mm; with Saccharomyces cerevisiae [18], 0 mm; in the series with Staphylococcus aureus [19], 15.3 mm. Moreover, the zone of inhibition at 100 µg/disc with Saccharomyces cerevisiae [20] turned out to be 7 mm; with Pseudomonas aeruginosa [21], 13 mm; in the series with Candida albicans [22], 0 mm; in the series on Bacillus subtilis [24] it was 12.5 mm. For the same molecule, the Activity entry in the series with CHO [2] is listed as “Toxic”; with CHO [3], 56%; with CHO [5] it was 37.1%; in the series on CHO [11], “Active”; in the series with CHO [12] it was “Toxic”; in the series on CHO [14], 0%. The Activity in the series on CHO [15] worked out at 5.5%; in the series on CHO [23] it was 0%.
As for `O=c1ccc2nccc3c4ccccc4n1c23` [CANTHIN-6-ONE], the zone of inhibition at 10 µg/disc in the series with Enterococcus faecalis [25] amounted to 0 mm; in the series on Staphylococcus aureus [26], 0 mm; in the series with Bacillus subtilis [27] it was 16 mm; in the series on Candida albicans [28], 9 mm; with Escherichia coli [29], 0 mm; with Bacillus subtilis [33] it was 8.6 mm. The zone of inhibition at 10 µg/disc in the series on Saccharomyces cerevisiae [34] was found to be 9 mm; in the series with Pseudomonas fluorescens [35], 0 mm; with Saccharomyces cerevisiae [38], 13 mm; in the series on Pseudomonas aeruginosa [39], 0 mm; in the series on Pseudomonas fluorescens [40] it was 0 mm; in the series on Candida albicans [41], 13 mm. The zone of inhibition at 10 µg/disc in the series on Pseudomonas aeruginosa [42] came to 0 mm; with Staphylococcus aureus [45], 10 mm; with Enterococcus faecalis [47] it was 0 mm; with Escherichia coli [48], 7 mm. In addition, the Activity in the series with CHO [30] was 22.2%; in the series with CHO [31] it was “Toxic”; in the series on CHO [32], “Toxic”; in the series on CHO [36], “Toxic”; in the series with CHO [37], 0%; in the series with CHO [43] it was “Toxic”. In addition, the Activity result in the series on CHO [44] is “Active”; with CHO [46], “Toxic”.
